Active and inactive are the calls of the source. No cut-off for these calls is given here.
Tests used:
[1] = Chemical stability of the compound assessed as compound remaining at pH 7.4 at 25 to 37 degC after 8 to 24 hrs by HPLC-MS analysis; type: physicochemical; conditions: buffer
[2] = Chemical stability of the compound at pH 9 at 25 degC after 8 hrs by HPLC-MS analysis; type: physicochemical; conditions: buffer, pH 9, 8 h
[3] = target: T1, Ectonucleoside triphosphate diphosphohydrolase 3 (Homo sapiens) (UniProt O75355); test: Inhibition of human recombinant NTPDase3 expressed in NS0 cells using ATP as substrate at 10 to 1000 uM preincubated with substrate followed by protein addition and subsequent incubation for 30 mins by capillary electrophoresis
T1 sequence (whole entry): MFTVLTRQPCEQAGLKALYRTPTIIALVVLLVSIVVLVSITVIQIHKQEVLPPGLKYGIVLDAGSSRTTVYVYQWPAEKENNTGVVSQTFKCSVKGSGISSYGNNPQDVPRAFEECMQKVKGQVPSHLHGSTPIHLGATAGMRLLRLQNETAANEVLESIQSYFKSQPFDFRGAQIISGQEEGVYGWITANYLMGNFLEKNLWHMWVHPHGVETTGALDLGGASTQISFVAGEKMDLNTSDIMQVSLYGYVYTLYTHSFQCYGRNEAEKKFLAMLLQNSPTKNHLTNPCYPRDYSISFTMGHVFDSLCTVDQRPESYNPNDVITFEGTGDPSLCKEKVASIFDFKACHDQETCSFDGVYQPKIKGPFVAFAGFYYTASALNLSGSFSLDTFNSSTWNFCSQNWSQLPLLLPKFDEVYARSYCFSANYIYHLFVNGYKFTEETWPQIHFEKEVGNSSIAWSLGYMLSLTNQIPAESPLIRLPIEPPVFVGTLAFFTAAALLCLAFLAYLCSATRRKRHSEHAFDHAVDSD

[4] = target: T2, Alkaline phosphatase, tissue-nonspecific isozyme (Homo sapiens) (UniProt P05186); test: Inhibition of human recombinant TNAP expressed in NS0 cells using p-nitrophenyl phosphate as substrate at 10 to 1000 uM preincubated with substrate followed by protein addition and subsequent incubation for 30 mins by colorimetric analysis
T2 sequence (whole entry): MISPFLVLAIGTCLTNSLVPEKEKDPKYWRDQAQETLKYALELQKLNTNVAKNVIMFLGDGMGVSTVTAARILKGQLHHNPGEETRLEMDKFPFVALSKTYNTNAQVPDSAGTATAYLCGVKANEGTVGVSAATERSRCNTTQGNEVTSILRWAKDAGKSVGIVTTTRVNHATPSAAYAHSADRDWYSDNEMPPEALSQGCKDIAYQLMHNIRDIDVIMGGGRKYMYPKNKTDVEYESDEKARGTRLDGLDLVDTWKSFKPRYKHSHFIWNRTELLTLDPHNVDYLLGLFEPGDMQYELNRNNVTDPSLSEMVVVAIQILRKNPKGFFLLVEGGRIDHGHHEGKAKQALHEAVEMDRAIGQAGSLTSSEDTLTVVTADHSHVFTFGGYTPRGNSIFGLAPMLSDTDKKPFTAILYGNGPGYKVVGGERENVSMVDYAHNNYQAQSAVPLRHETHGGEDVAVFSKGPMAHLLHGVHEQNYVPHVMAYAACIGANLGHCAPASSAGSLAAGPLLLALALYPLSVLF

[5] = Chemical stability of the compound assessed as compound remaining at pH 9 at 25 degC after 24 hrs by HPLC-MS analysis; type: physicochemical; conditions: buffer, read-out: Stability
[6] = Drug metabolism of the compound in MgCl2/CaCl2/CHES buffer assessed as 2-hydroxy-3-(5-iodofuran-2-yl)-1-(2-thioxo-2,3-dihydro-1H-benzo[d]imidazol-1-yl)prop-2-en-1-one metabolite formation at pH 9 after 24 hrs by LC-MS analysis; type: physicochemical; conditions: pH 9, 24 h
Homo sapiens = species: Homo sapiens; test: Selectivity ratio of Ki for human recombinant NPP3 to Ki for human recombinant NPP1
[7] = target: T3, Ectonucleotide pyrophosphatase/phosphodiesterase family member 3 (Homo sapiens) (UniProt O14638); test: Inhibition of human recombinant NPP3 expressed in insect SF9 cells using ATP as substrate at >100 uM preincubated with substrate followed by protein addition and subsequent incubation for 60 mins by capillary electrophoresis
T3 sequence (whole entry): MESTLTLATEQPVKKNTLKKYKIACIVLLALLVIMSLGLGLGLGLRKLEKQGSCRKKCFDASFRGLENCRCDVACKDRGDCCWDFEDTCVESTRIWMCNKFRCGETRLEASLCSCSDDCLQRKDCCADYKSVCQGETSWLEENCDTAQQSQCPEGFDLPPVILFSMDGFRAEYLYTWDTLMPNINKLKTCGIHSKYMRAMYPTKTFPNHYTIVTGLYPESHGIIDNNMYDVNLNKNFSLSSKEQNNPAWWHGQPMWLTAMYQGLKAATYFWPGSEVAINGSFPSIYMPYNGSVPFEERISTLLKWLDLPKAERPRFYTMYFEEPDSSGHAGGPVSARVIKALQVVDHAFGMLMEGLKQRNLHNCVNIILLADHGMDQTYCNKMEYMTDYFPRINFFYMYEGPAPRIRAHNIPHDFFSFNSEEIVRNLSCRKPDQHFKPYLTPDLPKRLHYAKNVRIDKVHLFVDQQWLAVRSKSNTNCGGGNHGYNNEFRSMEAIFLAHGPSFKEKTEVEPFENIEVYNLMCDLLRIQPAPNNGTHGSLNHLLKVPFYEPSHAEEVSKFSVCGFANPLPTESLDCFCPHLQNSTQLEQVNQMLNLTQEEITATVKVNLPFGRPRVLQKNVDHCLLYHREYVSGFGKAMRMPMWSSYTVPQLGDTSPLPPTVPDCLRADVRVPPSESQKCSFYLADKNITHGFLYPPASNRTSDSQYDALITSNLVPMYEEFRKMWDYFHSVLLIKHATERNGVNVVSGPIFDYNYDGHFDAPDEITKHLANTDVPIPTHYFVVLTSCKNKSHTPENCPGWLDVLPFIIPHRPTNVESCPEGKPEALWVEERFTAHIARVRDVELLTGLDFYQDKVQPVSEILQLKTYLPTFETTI

[8] = Retention time of the compound in MgCl2/CaCl2/CHES buffer at pH 9 by LC-MS analysis; type: physicochemical
[9] = target: 5'-nucleotidase (Homo sapiens) (UniProt P21589); test: Inhibition of human recombinant Ecto-5'-nucleotidase expressed in CHO cells using AMP as substrate at >100 uM preincubated with substrate followed by protein addition and subsequent incubation for 30 mins by capillary electrophoresis
[10] = Chemical stability of the compound assessed as compound remaining at pH 9 at 37 degC after 24 hrs by HPLC-MS analysis; type: physicochemical; conditions: buffer, read-out: Stability

Sequence of 5'-nucleotidase (Homo sapiens) (P21589 whole entry): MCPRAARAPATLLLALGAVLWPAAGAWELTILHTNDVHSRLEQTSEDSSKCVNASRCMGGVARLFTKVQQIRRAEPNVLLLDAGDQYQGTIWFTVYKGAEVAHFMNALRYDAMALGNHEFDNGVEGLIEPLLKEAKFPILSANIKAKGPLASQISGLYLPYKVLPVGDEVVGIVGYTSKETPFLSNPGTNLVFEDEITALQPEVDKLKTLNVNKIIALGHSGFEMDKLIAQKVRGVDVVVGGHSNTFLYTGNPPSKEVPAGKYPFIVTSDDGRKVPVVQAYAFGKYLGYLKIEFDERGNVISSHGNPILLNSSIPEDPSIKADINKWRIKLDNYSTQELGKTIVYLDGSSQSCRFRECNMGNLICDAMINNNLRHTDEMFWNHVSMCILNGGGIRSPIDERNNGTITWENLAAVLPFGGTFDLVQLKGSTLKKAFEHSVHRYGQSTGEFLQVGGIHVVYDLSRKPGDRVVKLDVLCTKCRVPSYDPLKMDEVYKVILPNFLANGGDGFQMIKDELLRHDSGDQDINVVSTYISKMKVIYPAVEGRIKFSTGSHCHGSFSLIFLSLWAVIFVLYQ

Stability [1]: Stable
Stability [2]: Stable
inhibition [3]: inactive
inhibition [4]: inactive
remaining at 24 h [5]: 52.4%
Drug metabolism [6]: metabolite_detected
Ratio Ki (Homo sapiens): 1000
inhibition [7]: Active
Retention_time [8]: 8.2 min
inhibition [9]: Active
remaining at 24 h [10]: 27.4%
SMILES: O=c1/c(=C/c2ccc(I)o2)sc2nc3ccccc3n12
